Measured values: US7642047B2, “Method of screening cell death modulators” (priority 2003, dated 2010)

How the values were obtained:
[1] = system: GDNF-deprived sympathetic neurons; assay: Survival assay of GDNF-deprived sympathetic neurons; format: cell-based, rat; design: protection of GDNF-deprived neurons (FIG. 5B legend): dose or concentration left out as unconfirmed
Description: (§1) Briefly, the neurons of postnatal day-1-2 Han/Wi strain rats were grown six days in vitro on polyornithine -laminin-coated dishes or glass coverslips with 100 ng/ml of human GDNF (PeproTech) or 30 ng/ml of 2.5 S mouse NGF (Promega). […] To reduce the number of nonneuronal cells, 1 μM cytosine arabinoside (Sigma-Aldrich) was always included next day after plating, but was not added to factor-deprived neurons. To deprive GDNF, the cultures were washed gently three times with GDNF-free culture medium. To remove NGF, the cultures were washed once with NGF-free medium and function-blocking anti-NGF antibodies (Roche) were added. The compounds of interest were added and initial neurons were counted immediately after neurotrophic factor deprivation. Living neurons were counted daily by a “blind” experimenter not aware of the identity of experimental groups. The following compounds were assayed: broad-range caspase inhibitor boc-aspartyl(OMe) -fluoromethylketone. […] When the compounds were dissolved in DMSO, the same amount of DMSO was always added to the control cultures.
(§2) In all studies described below, the neurons from newborn rat SCG were maintained in sister dishes with GDNF (100 ng/ml) or NGF (30 ng/ml) for six DIV, then deprived of these factors for 48 or 72 hours, and analysed. NGF- and GDNF-responsive neurons were always analysed in parallel and received identical treatment.

[2] = system: NGF-deprived sympathetic neurons; assay: Survival assay of NGF-deprived sympathetic neurons; format: cell-based, rat; design: protection of NGF-deprived neurons (FIG. 5B legend): dose or concentration left out as unconfirmed
Description: as §1, §2

[3] = system: newborn rat sympathetic neurons from the superior cervical ganglion; assay: Survival of newly isolated sympathetic neurons maintained with neurotrophic factor; format: cell-based
Description: FIGS. 1A, 1B, and 1C. […] (1A) Newly isolated neurons were grown with GDNF (100 ng/ml), NGF (30 ng/ml) or without neurotrophic factors for eight days. The living neurons were counted daily and expressed as percent of initial neurons, counted two hours after plating. The mean±standard error of the mean of three independent cultures is shown for each data point. (1B) Newly isolated neurons were maintained with different doses of GDNF for six days. The living neurons were counted daily and expressed as percent of initial neurons, counted two hours after plating. For comparison, survival with NGF (30 ng/ml) is also shown. […] Living neurons were counted daily and expressed as percent of initial neurons counted immediately after factor deprivation. […]
Briefly, the neurons of postnatal day-1-2 Han/Wi strain rats were grown six days in vitro on polyornithine -laminin-coated dishes or glass coverslips with 100 ng/ml of human GDNF (PeproTech) or 30 ng/ml of 2.5 S mouse NGF (Promega). […] The compounds of interest were added and initial neurons were counted immediately after neurotrophic factor deprivation. Living neurons were counted daily by a “blind” experimenter not aware of the identity of experimental groups. […]
In similar conditions, about 98% of the NGF-maintained neurons had survived (FIG. 1 A). […] NGF- and GDNF-responsive neurons were always analysed in parallel and received identical treatment. […]

[4] = BAF at 50 μM, living neurons counted 72 h after deprivation
[5] = living neurons counted 72 h after treatment and deprivation

Molecule	effect on death of GDNF-deprived neurons [1, 4]	protection of GDNF-deprived neurons (FIG. 5B legend) [1, 5]	effect on death of NGF-deprived neurons [2, 4]	protection of NGF-deprived neurons (FIG. 5B legend) [2, 5]	initially plated neurons survived ([3]; by sixth day in vitro, GDNF 100 ng/ml or NGF 30 ng/ml, percent of initial neurons counted two hours after plating)	saturating concentration for SCG neurons ([3]; dose-dependence study, neurons maintained six days) [ng/mL]
COC(=O)CC(NC(=O)OC(C)(C)C)C(=O)CF (stereo not drawn) [BAF, boc-aspartyl(OMe)-fluoromethylketone]	almost completely blocked death	protects	almost completely blocked death	protects		
GDNF: human GDNF (PeproTech), glial cell line-derived neurotrophic factor (protein, UniProt P39905 78-211, looked up) Glial cell line-derived …: SPDKQMAVLPRRERNRQAAAANPENSRGKGRRGQRGKNRGCVLTAIHLNVTDLGLGYETKEELIFRYCSGSCDAAETTYDKILKNLSRNRRLVSDKVGQACCRPIAFDDDLSFLDDNLVYHILRKHSAKRCGCI					about 34%	100
